The values that follow come from the NIST ThermoML archive (doi:10.1016/j.jct.2011.11.021).

± gives the expanded uncertainty stated by the source.

A short description of this series: activity coefficient (dimensionless); of the first substance listed, at infinite dilution; xn = mol fraction of the nth substance listed. As to conditions: Liquid, Chromatography, x1 = 0.

Regarding `CCCCCCC` [heptane] + COCC[N+]1(C)CCOCC1.O=S(=O)([N-]S(=O)(=O)C(F)(F)F)C(F)(F)F, the activity coefficient runs as follows: (318.15 K) 54.4 ± 3.7; (328.15 K) 48.7 ± 3.3; (338.15 K) 43.8 ± 3; (348.15 K) 39.7 ± 2.7; (358.15 K) 36.2 ± 2.5; (368.15 K) 33.1 ± 2.3.

`c1ccsc1` [thiophene] + COCC[N+]1(C)CCOCC1.O=S(=O)([N-]S(=O)(=O)C(F)(F)F)C(F)(F)F: the activity coefficient worked out at 1.09 ± 0.07 (318.15 K); 1.08 ± 0.07 (328.15 K); 1.08 ± 0.07 (338.15 K); 1.08 ± 0.07 (348.15 K); 1.08 ± 0.07 (358.15 K); 1.08 ± 0.07 (368.15 K).

Turning to `CCOC(C)=O` [ethyl acetate] + COCC[N+]1(C)CCOCC1.O=S(=O)([N-]S(=O)(=O)C(F)(F)F)C(F)(F)F, the activity coefficient was determined as 0.984 ± 0.062 (318.15 K); 1 ± 0.06 (328.15 K); 1.02 ± 0.06 (338.15 K); 1.03 ± 0.06 (348.15 K); 1.04 ± 0.07 (358.15 K); 1.06 ± 0.07 (368.15 K).

Regarding `c1ccncc1` [pyridine] + COCC[N+]1(C)CCOCC1.O=S(=O)([N-]S(=O)(=O)C(F)(F)F)C(F)(F)F, the activity coefficient (318.15 K) was determined as 0.64 ± 0.044; the activity coefficient (328.15 K) was found to be 0.644 ± 0.044; the activity coefficient (338.15 K) amounted to 0.648 ± 0.044; the activity coefficient (348.15 K) was determined as 0.651 ± 0.045; the activity coefficient (358.15 K) stood at 0.654 ± 0.045; the activity coefficient (368.15 K) came out at 0.658 ± 0.045.

For the compound `CCCCO` [butan-1-ol] + COCC[N+]1(C)CCOCC1.O=S(=O)([N-]S(=O)(=O)C(F)(F)F)C(F)(F)F, the activity coefficient runs as follows: (318.15 K) 3.31 ± 0.23; (328.15 K) 2.94 ± 0.2; (338.15 K) 2.66 ± 0.18; (348.15 K) 2.4 ± 0.16; (358.15 K) 2.18 ± 0.15; (368.15 K) 2.02 ± 0.14.

As to `C1CCCC1` [cyclopentane] + COCC[N+]1(C)CCOCC1.O=S(=O)([N-]S(=O)(=O)C(F)(F)F)C(F)(F)F, the activity coefficient (318.15 K) was found to be 12.2 ± 0.8; the activity coefficient (328.15 K) stood at 11.2 ± 0.8; the activity coefficient (338.15 K) was 10.4 ± 0.7; the activity coefficient (348.15 K) came out at 9.68 ± 0.66; the activity coefficient (358.15 K) worked out at 9.1 ± 0.62; the activity coefficient (368.15 K) was found to be 8.54 ± 0.58.

Turning to `C1=CCCCC1` [cyclohexene] + COCC[N+]1(C)CCOCC1.O=S(=O)([N-]S(=O)(=O)C(F)(F)F)C(F)(F)F, the activity coefficient worked out at 9.14 ± 0.62 (318.15 K); 8.62 ± 0.59 (328.15 K); 8.21 ± 0.56 (338.15 K); 7.84 ± 0.53 (348.15 K); 7.45 ± 0.51 (358.15 K); 7.08 ± 0.48 (368.15 K).

For the compound `CCCCCCCC` [octane] + COCC[N+]1(C)CCOCC1.O=S(=O)([N-]S(=O)(=O)C(F)(F)F)C(F)(F)F, the activity coefficient worked out at 82.1 ± 5.6 (318.15 K); 71.6 ± 4.9 (328.15 K); 64.6 ± 4.4 (338.15 K); 58.4 ± 4 (348.15 K); 51.7 ± 3.5 (358.15 K); 47.3 ± 3.2 (368.15 K).

As to `CCC(C)O` (centres undefined) [butan-2-ol] + COCC[N+]1(C)CCOCC1.O=S(=O)([N-]S(=O)(=O)C(F)(F)F)C(F)(F)F, the activity coefficient stood at 2.76 ± 0.19 (318.15 K); 2.47 ± 0.17 (328.15 K); 2.26 ± 0.15 (338.15 K); 2.06 ± 0.14 (348.15 K); 1.9 ± 0.13 (358.15 K); 1.78 ± 0.12 (368.15 K).

Take `C#CCCCC` [1-hexyne] + COCC[N+]1(C)CCOCC1.O=S(=O)([N-]S(=O)(=O)C(F)(F)F)C(F)(F)F: the activity coefficient was determined as 4.88 ± 0.33 (318.15 K); 4.8 ± 0.33 (328.15 K); 4.75 ± 0.32 (338.15 K); 4.7 ± 0.32 (348.15 K); 4.65 ± 0.32 (358.15 K); 4.61 ± 0.31 (368.15 K).

Regarding `CC(C)CC(C)(C)C` [2,2,4-trimethylpentane] + COCC[N+]1(C)CCOCC1.O=S(=O)([N-]S(=O)(=O)C(F)(F)F)C(F)(F)F, the activity coefficient runs as follows: (318.15 K) 55.9 ± 3.8; (328.15 K) 49.5 ± 3.4; (338.15 K) 45 ± 3.1; (348.15 K) 40.8 ± 2.8; (358.15 K) 37.2 ± 2.5; (368.15 K) 34.1 ± 2.3.

Regarding `CCC(C)(C)C` [2,2-dimethylbutane] + COCC[N+]1(C)CCOCC1.O=S(=O)([N-]S(=O)(=O)C(F)(F)F)C(F)(F)F, the activity coefficient is, setting by setting: (318.15 K) 32.4 ± 2.2; (328.15 K) 28.4 ± 1.9; (338.15 K) 25.7 ± 1.8; (348.15 K) 23.2 ± 1.6; (358.15 K) 21.2 ± 1.4; (368.15 K) 19.5 ± 1.3.

For `CC(C)=O` [acetone] + COCC[N+]1(C)CCOCC1.O=S(=O)([N-]S(=O)(=O)C(F)(F)F)C(F)(F)F, the activity coefficient runs as follows: (318.15 K) 0.43 ± 0.035; (328.15 K) 0.442 ± 0.036; (338.15 K) 0.451 ± 0.036; (348.15 K) 0.461 ± 0.036; (358.15 K) 0.47 ± 0.037; (368.15 K) 0.48 ± 0.037.

On to `CCC(C)CC` [3-methylpentane] + COCC[N+]1(C)CCOCC1.O=S(=O)([N-]S(=O)(=O)C(F)(F)F)C(F)(F)F, for which the activity coefficient was determined as 32.3 ± 2.2 (318.15 K); 29 ± 2 (328.15 K); 26.3 ± 1.8 (338.15 K); 23.9 ± 1.6 (348.15 K); 21.9 ± 1.5 (358.15 K); 20.2 ± 1.4 (368.15 K).

As to `c1ccccc1` [benzene] + COCC[N+]1(C)CCOCC1.O=S(=O)([N-]S(=O)(=O)C(F)(F)F)C(F)(F)F, the activity coefficient (318.15 K) amounted to 1.33 ± 0.09; the activity coefficient (328.15 K) came to 1.32 ± 0.09; the activity coefficient (338.15 K) amounted to 1.32 ± 0.09; the activity coefficient (348.15 K) stood at 1.32 ± 0.09; the activity coefficient (358.15 K) was 1.31 ± 0.09; the activity coefficient (368.15 K) came to 1.31 ± 0.09.

`CCCC(C)=O` [pentan-2-one] + COCC[N+]1(C)CCOCC1.O=S(=O)([N-]S(=O)(=O)C(F)(F)F)C(F)(F)F: the activity coefficient (318.15 K) came to 0.88 ± 0.056; the activity coefficient (328.15 K) worked out at 0.89 ± 0.057; the activity coefficient (338.15 K) was 0.9 ± 0.057; the activity coefficient (348.15 K) is 0.91 ± 0.058; the activity coefficient (358.15 K) was found to be 0.918 ± 0.058; the activity coefficient (368.15 K) was 0.925 ± 0.058.

`C#CCCCCCC` [1-octyne] + COCC[N+]1(C)CCOCC1.O=S(=O)([N-]S(=O)(=O)C(F)(F)F)C(F)(F)F: the activity coefficient was found to be 11.4 ± 0.8 (318.15 K); 11 ± 0.8 (328.15 K); 10.6 ± 0.7 (338.15 K); 10.3 ± 0.7 (348.15 K); 9.93 ± 0.68 (358.15 K); 9.67 ± 0.66 (368.15 K).

As for `Cc1ccccc1` [toluene] + COCC[N+]1(C)CCOCC1.O=S(=O)([N-]S(=O)(=O)C(F)(F)F)C(F)(F)F, the activity coefficient (318.15 K) is 2.01 ± 0.14; the activity coefficient (328.15 K) came out at 2.01 ± 0.14; the activity coefficient (338.15 K) worked out at 2 ± 0.14; the activity coefficient (348.15 K) was found to be 1.99 ± 0.14; the activity coefficient (358.15 K) was found to be 1.98 ± 0.13; the activity coefficient (368.15 K) turned out to be 1.97 ± 0.13.

Take `C#CCCCCC` [1-heptyne] + COCC[N+]1(C)CCOCC1.O=S(=O)([N-]S(=O)(=O)C(F)(F)F)C(F)(F)F: the activity coefficient (318.15 K) came out at 7.44 ± 0.51; the activity coefficient (328.15 K) was 7.24 ± 0.49; the activity coefficient (338.15 K) was 7.09 ± 0.48; the activity coefficient (348.15 K) was 6.94 ± 0.47; the activity coefficient (358.15 K) worked out at 6.79 ± 0.46; the activity coefficient (368.15 K) amounted to 6.65 ± 0.45.
